The conditions of the series: 298.15 K, 101.33 kPa, Liquid; for viscosity: Capillary tube (Ostwald / Ubbelohde) method; for speed of sound: Sing-around technique in a fixed-path interferometer; for mass density: Vibrating tube method.

Structures are written as SMILES. Numbers after ± are expanded uncertainties.

With `CC(C)CO` [2-methyl-1-propanol], the viscosity – broadly, the resistance of a fluid to flow – is reported as 3.307 ± 0.02 mPa·s; the speed of sound (usually the propagation velocity of pressure waves in the medium) was 1188.8 ± 0.8 m/s; the mass density – broadly, the mass of a sample divided by its volume – is recorded as 798.104 ± 0.14 kg/m3.

For `CCCCO` [butan-1-ol], the viscosity is 2.565 ± 0.016 mPa·s, the speed of sound worked out at 1241.1 ± 0.8 m/s and the mass density turned out to be 805.953 ± 0.14 kg/m3.

With `NCCNCCN` [di(2-aminoethyl)amine], the viscosity was 5.627 ± 0.033 mPa·s, the speed of sound was 1670.5 ± 1 m/s and the mass density is 945.548 ± 0.099 kg/m3.

For the compound `CC(C)O` [propan-2-ol], the viscosity is given as 2.063 ± 0.013 mPa·s, the speed of sound was determined as 1140.4 ± 0.8 m/s and the mass density amounted to 781.482 ± 0.15 kg/m3.

The record behind these values is the NIST ThermoML archive (doi:10.1016/j.tca.2011.06.003).
